Test results reported in patent US12497393B2, “β-lactam compound, use thereof and preparation method therefor” (priority 2020, dated 2025).
Values after ≈ are worked out from the molar mass of the structure shown. Like-named read-outs stand apart in the source and are kept apart here. Where a SMILES comes first, the peptide text is derived from it. Bridges are numbered along the chain shown (N, C = ends). [ ]: non-standard residue; d: D form. The star is where a group is joined. Heptanoyl(6-Me) = CC(C)CCCCC(=O)*; Dab = NCC[C@H](N)C(=O)O

Experiments:
Test in all cases: Antibacterial activity MIC assay (two-fold dilution agar plating)
Type in all cases: cell-based
Escherichia coli = details: for MIC: Escherichia coli, read-out: Minimal Inhibitory Concentration (MIC)
Protocol: (§1) Antibacterial Activity-Evaluating Method (MIC Assay)
(§2) In this study, the compounds of the present invention were tested for their antibacterial activities by using two-fold dilution agar plating method and Denley Multipoint Inoculator A400 according to the guidelines of the CLSI/NCCLS standard. The tested strains were amplified by hydrolyzed casein peptone (Mueller-Hinton Agar) broth and Brain and Heart Infusion. The strains used in this study were bacterial strains that were purchased from ATCC or clinically isolated in Chinese hospitals. Aztreonam, polymyxin or levofloxacin was used as positive control. The drugs were diluted with hydrolyzed casein peptone broth to the desired concentrations including 128.0, 64.0, 32.0, 16.0, 8.0, 4.0, 2.0, 1.0, 0.5, 0.25, 0.125, 0.06 and 0.03 μg/mL, and then placed respectively into each well and mixed thoroughly. After inoculation, the tested strains were incubated for 18 hours at a constant temperature of 35° C., and their growth levels were observed. The drug concentration with no microbial growth in the well was recorded as the lowest Minimal Inhibitory Concentration (MIC).

Providencia rettgeri = tested on: Providencia rettgeri
Protocol: as §1, §2

Acinetobacter baumannii = details: for MIC: Acinetobacter baumannii, read-out: Minimal Inhibitory Concentration (MIC)
Protocol: as §1, §2

Salmonella typhi = tested on: Salmonella typhi
Protocol: as §1, §2

Proteus vulgaris = tested on: Proteus vulgaris
Protocol: as §1, §2

Klebsiella Pneumoniae = details: for MIC: Klebsiella pneumoniae, read-out: Minimal Inhibitory Concentration (MIC)
Protocol: as §1, §2

Serratia marcescens = Serratia marcescens ATCC 21074
Protocol: as §1, §2

Enterobacter aerogenes = Enterobacter aerogenes ATCC 13048
Protocol: as §1, §2

Shigella flexneri = Shigella flexneri ATCC 12022
Protocol: as §1, §2

Citrobacter freundii = Citrobacter freundii ATCC 43864
Protocol: as §1, §2

[1] = tested on: Stenotrophomonas maltophilia; details: Stenotrophomonas maltophilia ATCC 13636
Protocol: as §1, §2

Enterobacter cloacae = details: for MIC: read-out: Minimal Inhibitory Concentration (MIC)
Protocol: as §1, §2

Proteus mirabilis = tested on: Proteus mirabilis
Protocol: as §1, §2

Pseudomonas aeruginosa = details: for MIC: read-out: Minimal Inhibitory Concentration (MIC)
Protocol: as §1, §2

[2] = Escherichia coli 08-85, mcr-1(+)
[3] = Escherichia coli 13-43, mcr-1(+)
[4] = Escherichia coli 13-66, mcr-1(+)
[5] = Escherichia coli 16-1, ESBLs(+)
[6] = Escherichia coli 16-7, ESBLs(−)
[7] = Escherichia coli CDC1001728, NDM-1(+)
[8] = Klebsiella Pneumoniae 09-20, mcr-1(+)
[9] = Klebsiella Pneumoniae 16-2, ESBLs(−)
[10] = Klebsiella Pneumoniae 16-14, ESBLs(+)
[11] = Enterobacter cloacae CDC1000654

In the case of `C[C@H]1[C@H](NC(=O)/C(=N\OC(C)(C)C(=O)O)c2csc(N)n2)C(=O)N1S(=O)(=O)O` [AZN, aztreonam, reference compound], the MIC (Escherichia coli; ATCC25922, Escherichia coli ATCC 25922, ESBLs(−)) is reported as 0.06 µg/mL (≈ 0.138 µM), the MIC (Escherichia coli; ATCC35218, Escherichia coli ATCC 35218, ESBLs(+)) is reported as ≤ 0.03 µg/mL and the MIC (Escherichia coli; [2]) is reported as 4 µg/mL (≈ 9.19 µM). For the same compound, the MIC (Escherichia coli; [3]) was 8 µg/mL (≈ 18.4 µM), the MIC (Escherichia coli; [4]) was 8 µg/mL (≈ 18.4 µM) and the MIC (Escherichia coli; [5]) was ≤ 0.03 µg/mL. For the same compound, the MIC (Escherichia coli; [6]) was 0.06 µg/mL (≈ 0.138 µM), the MIC (Escherichia coli; Escherichia coli 17-R28, CRE, NDM-1(+)) was 16 µg/mL (≈ 36.7 µM) and the MIC (Escherichia coli; [7]) was 4 µg/mL (≈ 9.19 µM). The MIC (Providencia rettgeri; Providencia rettgeri, ATCC31052, Providencia rettgeri ATCC 31052, read-out: Minimal Inhibitory Concentration (MIC)) was ≤ 0.03 µg/mL, the MIC (Acinetobacter baumannii; ATCC19606, Acinetobacter baumannii ATCC 19606) was 32 µg/mL (≈ 73.5 µM) and the MIC (Acinetobacter baumannii; Acinetobacter baumannii 16-16) was 128 µg/mL (≈ 294 µM). The MIC (Acinetobacter baumannii; Acinetobacter baumannii 16-33) was 32 µg/mL (≈ 73.5 µM), the MIC (Salmonella typhi; Salmonella enterica, TYPHI, read-out: Minimal Inhibitory Concentration (MIC)) was ≤ 0.03 µg/mL and the MIC (Proteus vulgaris; Proteus vulgaris, ATCC29905, Proteus vulgaris ATCC 29905, read-out: Minimal Inhibitory Concentration (MIC)) was ≤ 0.03 µg/mL. The MIC (Klebsiella Pneumoniae; ATCC700603, Klebsiella Pneumoniae ATCC 700603, ESBLs(+)) was 32 µg/mL (≈ 73.5 µM), the MIC (Klebsiella Pneumoniae; ATCCBAA2146, Klebsiella Pneumoniae ATCC BAA-2146, NDM-1(+)) was > 128 µg/mL and the MIC (Klebsiella Pneumoniae; [8]) was 0.25 µg/mL (≈ 0.574 µM). The MIC (Klebsiella Pneumoniae; [9]) was 0.06 µg/mL (≈ 0.138 µM), the MIC (Klebsiella Pneumoniae; [10]) was 4 µg/mL (≈ 9.19 µM) and the MIC (Klebsiella Pneumoniae; Klebsiella Pneumoniae 17-R27, CRE) was 0.25 µg/mL (≈ 0.574 µM). The MIC (Serratia marcescens; ATCC21074, read-out: Minimal Inhibitory Concentration (MIC)) was 0.12 µg/mL (≈ 0.276 µM), the MIC (Enterobacter aerogenes; Klebsiella aerogenes, ATCC13048, read-out: Minimal Inhibitory Concentration (MIC)) was 0.12 µg/mL (≈ 0.276 µM) and the MIC (Shigella flexneri; ATCC12022, read-out: Minimal Inhibitory Concentration (MIC)) was 0.25 µg/mL (≈ 0.574 µM). The MIC (Citrobacter freundii; ATCC43864, read-out: Minimal Inhibitory Concentration (MIC)) was 0.12 µg/mL (≈ 0.276 µM), the MIC ([1]; ATCC13636, read-out: Minimal Inhibitory Concentration (MIC)) was 32 µg/mL (≈ 73.5 µM) and the MIC (Enterobacter cloacae; ATCC43560, Enterobacter cloacae ATCC 43560) was ≤ 0.03 µg/mL. For the same compound, the MIC (Enterobacter cloacae; [11]) was > 128 µg/mL, the MIC (Proteus mirabilis; Proteus mirabilis, ATCC49565, Proteus mirabilis ATCC 49565, read-out: Minimal Inhibitory Concentration (MIC)) was ≤ 0.03 µg/mL and the MIC (Pseudomonas aeruginosa; ATCC27853, Pseudomonas aeruginosa ATCC 27853) was 4 µg/mL (≈ 9.19 µM). The MIC (Pseudomonas aeruginosa; Pseudomonas aeruginosa 16-11) was > 128 µg/mL and the MIC (Pseudomonas aeruginosa; Pseudomonas aeruginosa PAO1) was 4 µg/mL (≈ 9.19 µM).

With `CC(C)CCCCC(=O)N[C@@H](CCN)C(=O)N[C@H](C(=O)N[C@@H](CCN)C(=O)N[C@H]1CCNC(=O)[C@H]([C@@H](C)O)NC(=O)[C@H](CCN)NC(=O)[C@H](CCN)NC(=O)[C@H](CC(C)C)NC(=O)[C@@H](CC(C)C)NC(=O)[C@H](CCN)NC1=O)[C@@H](C)O` [Colistin B, colistin B, reference compound] ({Heptanoyl(6-Me)}-[Dab]T[Dab][Dab][Dab][dL]L[Dab][Dab]T; lactam 4-C) the “Minimal Inhibitory Concentration (MIC)” value (Escherichia coli; [2]) was 8 µg/mL, the “Minimal Inhibitory Concentration (MIC)” value (Escherichia coli; [3]) was 8 µg/mL and the “Minimal Inhibitory Concentration (MIC)” value (Escherichia coli; [4]) was 8 µg/mL. For the same compound, the “Minimal Inhibitory Concentration (MIC)” value (Escherichia coli; [5]) was 0.5 µg/mL, the “Minimal Inhibitory Concentration (MIC)” value (Escherichia coli; [6]) was 1 µg/mL and the “Minimal Inhibitory Concentration (MIC)” value (Escherichia coli; Escherichia coli ATCC 25922, ESBLs(−)) was 1 µg/mL. For the same compound, the “Minimal Inhibitory Concentration (MIC)” value (Escherichia coli; Escherichia coli ATCC 35218, ESBLs(+)) was 1 µg/mL, the “Minimal Inhibitory Concentration (MIC)” value (Escherichia coli; [7]) was 1 µg/mL and the “Minimal Inhibitory Concentration (MIC)” value (Providencia rettgeri; Providencia rettgeri ATCC 31052) was >64 µg/mL. For the same compound, the “Minimal Inhibitory Concentration (MIC)” value (Acinetobacter baumannii; Acinetobacter baumannii 16-16) was 1 µg/mL, the “Minimal Inhibitory Concentration (MIC)” value (Acinetobacter baumannii; Acinetobacter baumannii 16-33) was 2 µg/mL and the “Minimal Inhibitory Concentration (MIC)” value (Acinetobacter baumannii; Acinetobacter baumannii ATCC 19606) was 1 µg/mL. For the same compound, the “Minimal Inhibitory Concentration (MIC)” value (Salmonella typhi; Salmonella typhi H901) was 1 µg/mL, the “Minimal Inhibitory Concentration (MIC)” value (Proteus vulgaris; Proteus vulgaris ATCC 29905) was >64 µg/mL and the “Minimal Inhibitory Concentration (MIC)” value (Klebsiella Pneumoniae; [8]) was 16 µg/mL. The “Minimal Inhibitory Concentration (MIC)” value (Klebsiella Pneumoniae; [9]) was 1 µg/mL, the “Minimal Inhibitory Concentration (MIC)” value (Klebsiella Pneumoniae; [10]) was 1 µg/mL and the “Minimal Inhibitory Concentration (MIC)” value (Klebsiella Pneumoniae; Klebsiella Pneumoniae ATCC 700603, ESBLs(+)) was 2 µg/mL. For the same compound, the “Minimal Inhibitory Concentration (MIC)” value (Klebsiella Pneumoniae; Klebsiella Pneumoniae ATCC BAA-2146, NDM-1(+)) was 1 µg/mL, the “Minimal Inhibitory Concentration (MIC)” value (Serratia marcescens) was >64 µg/mL and the “Minimal Inhibitory Concentration (MIC)” value (Enterobacter aerogenes) was 2 µg/mL. For the same compound, the “Minimal Inhibitory Concentration (MIC)” value (Shigella flexneri) was 0.5 µg/mL, the “Minimal Inhibitory Concentration (MIC)” value (Citrobacter freundii) was 2 µg/mL and the “Minimal Inhibitory Concentration (MIC)” value [1] was >64 µg/mL. The “Minimal Inhibitory Concentration (MIC)” value (Enterobacter cloacae; Enterobacter cloacae ATCC 43560) was >64 µg/mL, the “Minimal Inhibitory Concentration (MIC)” value (Enterobacter cloacae; [11]) was 1 µg/mL and the “Minimal Inhibitory Concentration (MIC)” value (Proteus mirabilis; Proteus mirabilis ATCC 49565) was >64 µg/mL. For the same compound, the “Minimal Inhibitory Concentration (MIC)” value (Pseudomonas aeruginosa; Pseudomonas aeruginosa 16-11) was 4 µg/mL, the “Minimal Inhibitory Concentration (MIC)” value (Pseudomonas aeruginosa; Pseudomonas aeruginosa ATCC 27853) was 4 µg/mL and the “Minimal Inhibitory Concentration (MIC)” value (Pseudomonas aeruginosa; Pseudomonas aeruginosa PAO1) was 8 µg/mL.
